Assay results: patent US8652509B2, “Method of wound hemostasis using liquid gallium nitrate” (priority 2009, dated 2014)
“Also recorded” adds a separate entry of the source.

Key:
[1] = system: open wound; test: Topical application of aqueous gallium nitrate to accidental open bleeding wounds (Experiments 1-3); assay type: in vivo, human
Description: Unless otherwise specified, all experiments below used an aqueous solution of unbuffered Ga(NO3)3, dissolved in water in the 5% to 15% weight/volume concentration range, specifically as stated. Note that none of these formulations contained citrate.
A first human subject sustained an accidental 1-inch long gash to the index finger, deep enough to extend below the epidermis, but stopping short of the bone. The wound bled profusely and hurt intensely. Subject immediately inserted the finger into a solution of concentrated (non-medical) 14% aqueous gallium nitrate. […] Subject kept the finger in the 14% aqueous gallium nitrate solution for 10 minutes. […] A regular bandage was then applied. Although a wound of this depth would normally require stitches, by the time further medical treatment was sought, stitches were no longer deemed necessary.
A different (second) human subject sustained an accidental 1-inch wide gash to the chin which again penetrated the epidermis, stopped short of the bone, and which bled very profusely. The wound was treated by liberally applying the same type of 14% gallium nitrate solution used in Experiment 1.
A third human subject sustained an accidental 2-inch wide and quite deep gash (penetrating the epidermis, stopping short of the bone) to the top of the forehead, accompanied by profuse bleeding. A less concentrated (7% aqueous gallium nitrate) topical solution was then applied.

[2] = system: bleeding time; test: Bleeding time test, forearm puncture with #11 scalpel blade (Experiment 4); assay type: in vivo, human
Description: The bleeding time test measures the function of a number of coagulation pathway parameters, including platelet function, extrinsic coagulation pathway and intrinsic coagulation pathway. Here, in order to better understand the various coagulation pathways that might be impacted by gallium nitrate, a bleeding function experiment was done to see if the gallium nitrate effect worked for patients (e.g. Warfarin or Coumadin™ patients) with a suppressed extrinsic coagulation pathway.
In this experiment, a first subject (Subject 1) was treated with Coumadin™ (Warfarin) to achieve a therapeutic dose with an International Normalized Ratio (INR) of 2.5.
Subject 1: To induce bleeding, the first INR 2.5 subject's mid forearm was punctured with a #11 scalpel blade to a depth of 4 mm. This produced prompt flow of blood in the form of a steady slow blood stream down the subject's forearm. This blood flow was gently wiped with gauze every 30 seconds without applying pressure. Under these control (no gallium nitrate) conditions, the bleeding stopped at 122 seconds.
To investigate the effect of gallium nitrate, a second puncture was then made to the arm of the INR 2.5 subject following the same methods as for the first puncture. However in this portion of the experiment, at 5 seconds after puncture, once blood flow had commenced, a gallium nitrate (14%) solution was applied using a soaked cotton-ball. In contrast to the previous no-gallium control, in this gallium nitrate application experiment, blood flow ceased after only 35 seconds. A small pool of blood stayed about incision site. Thus for an INR 2.5 patient, gallium nitrate reduced bleeding time from a control of 122 seconds to a value of only 35 seconds, which is a very substantial decrease.
Subject 2: A mid forearm puncture was made following the same methods as described above. This first puncture was gently wiped with gauze every 30 seconds without applying pressure. In this no gallium nitrate control condition, bleeding stopped at 268 seconds
To investigate the effect of gallium nitrate, a second puncture was then made following the same methods as for the first puncture. At 5 seconds after puncture, once blood flow had commenced, a gallium nitrate (14%) solution was applied using a soaked cotton-ball. By 77 seconds the flow had ceased and a visible clot had started to form.

SMILES: O=[N+]([O-])[O-].O=[N+]([O-])[O-].O=[N+]([O-])[O-].[Ga+3] [gallium nitrate]
- wound healing ([1]; Experiment 1: 14% aqueous gallium nitrate, finger gash, regular bandage afterwards): healed completely within a matter of days
- pain ([1]; Experiment 1: 14% aqueous gallium nitrate, finger kept in solution for 10 minutes): near immediate reduction in pain; also recorded: no pain was felt
- bleeding stopped ([1]; Experiment 1: first human subject, 1-inch gash to index finger, finger inserted into 14% aqueous gallium nitrate, no citrate): stopped within a few seconds
- resulting clot ([1]; Experiment 2: 14% gallium nitrate solution, chin gash, examined by treating physician shortly thereafter): unusual strength
- bleeding stopped ([1]; Experiment 2: second human subject, 1-inch gash to chin, 14% gallium nitrate solution liberally applied): rapidly stopped bleeding
- bleeding stopped ([1]; Experiment 3: third human subject, 2-inch deep gash to forehead, 7% aqueous gallium nitrate topical): stopped bleeding unusually quickly
- clot formation ([1]; summary of the accidental event: aqueous 14% gallium nitrate on a large open wound immediately after wound formation): unexpectedly rapid clot formation
- visible clot formation ([2]; Coumadin treated subject, 14% solution): did not form a visible clot
- bleeding time (blood flow ceased) ([2]; Subject 1, Coumadin (Warfarin) treated, INR 2.5, 14% solution applied with soaked cotton-ball 5 seconds after puncture): 35 s
- bleeding time (flow ceased) ([2]; Subject 2, non-Coumadin treated, 14% solution applied with soaked cotton-ball 5 seconds after puncture): 77 s
- reduction of bleeding time compared to no-gallium nitrate control ([2]; both the Warfarin/Coumadin treated and the non-treated subject, 14% solution): approximately 75%
- visible clot formation ([2]; non-Coumadin treated subject, 14% solution): formed a very visible brown clot
